Measurements from patent US11618765B2, “Broad-spectrum antiviral nucleoside derivatives” (priority 2020, dated 2023).

Tests used:
[1] = system: human cells in culture; details: cited from earlier work
[2] = target: T1, Molt-4 DNA polymerase a (Homo sapiens, UniProt P09884); details: read-out: IC50 for inhibition of Molt-4 DNA polymerase a; cited from earlier work
T1 construct: host or cells: Molt-4

[3] = target: T2, HIV-reverse transcriptase (Human immunodeficiency virus type 1 group M subtype B, UniProt P04585); assay: inhibition of HIV-reverse transcriptase; type: biochemical; details: ratio of IC50 values
Source text: Another example of a pyrimidine nucleoside analog as a direct acting antiviral is imidine (dImd), a thymidine analog, [17]. […] Its monophosphate (dIMP) readily incorporated into proviral DNA in place of dTMP, preferentially opposite to adenine (A) in the viral RNA template and caused a decrease in the fidelity of replication at the incorporated sites, due to misincorporation.

[4] = target: T2, HIV-reverse transcriptase; details: read-out: IC50 for inhibition of HIV-reverse transcriptase; cited from earlier work

T1 sequence (P09884 whole entry): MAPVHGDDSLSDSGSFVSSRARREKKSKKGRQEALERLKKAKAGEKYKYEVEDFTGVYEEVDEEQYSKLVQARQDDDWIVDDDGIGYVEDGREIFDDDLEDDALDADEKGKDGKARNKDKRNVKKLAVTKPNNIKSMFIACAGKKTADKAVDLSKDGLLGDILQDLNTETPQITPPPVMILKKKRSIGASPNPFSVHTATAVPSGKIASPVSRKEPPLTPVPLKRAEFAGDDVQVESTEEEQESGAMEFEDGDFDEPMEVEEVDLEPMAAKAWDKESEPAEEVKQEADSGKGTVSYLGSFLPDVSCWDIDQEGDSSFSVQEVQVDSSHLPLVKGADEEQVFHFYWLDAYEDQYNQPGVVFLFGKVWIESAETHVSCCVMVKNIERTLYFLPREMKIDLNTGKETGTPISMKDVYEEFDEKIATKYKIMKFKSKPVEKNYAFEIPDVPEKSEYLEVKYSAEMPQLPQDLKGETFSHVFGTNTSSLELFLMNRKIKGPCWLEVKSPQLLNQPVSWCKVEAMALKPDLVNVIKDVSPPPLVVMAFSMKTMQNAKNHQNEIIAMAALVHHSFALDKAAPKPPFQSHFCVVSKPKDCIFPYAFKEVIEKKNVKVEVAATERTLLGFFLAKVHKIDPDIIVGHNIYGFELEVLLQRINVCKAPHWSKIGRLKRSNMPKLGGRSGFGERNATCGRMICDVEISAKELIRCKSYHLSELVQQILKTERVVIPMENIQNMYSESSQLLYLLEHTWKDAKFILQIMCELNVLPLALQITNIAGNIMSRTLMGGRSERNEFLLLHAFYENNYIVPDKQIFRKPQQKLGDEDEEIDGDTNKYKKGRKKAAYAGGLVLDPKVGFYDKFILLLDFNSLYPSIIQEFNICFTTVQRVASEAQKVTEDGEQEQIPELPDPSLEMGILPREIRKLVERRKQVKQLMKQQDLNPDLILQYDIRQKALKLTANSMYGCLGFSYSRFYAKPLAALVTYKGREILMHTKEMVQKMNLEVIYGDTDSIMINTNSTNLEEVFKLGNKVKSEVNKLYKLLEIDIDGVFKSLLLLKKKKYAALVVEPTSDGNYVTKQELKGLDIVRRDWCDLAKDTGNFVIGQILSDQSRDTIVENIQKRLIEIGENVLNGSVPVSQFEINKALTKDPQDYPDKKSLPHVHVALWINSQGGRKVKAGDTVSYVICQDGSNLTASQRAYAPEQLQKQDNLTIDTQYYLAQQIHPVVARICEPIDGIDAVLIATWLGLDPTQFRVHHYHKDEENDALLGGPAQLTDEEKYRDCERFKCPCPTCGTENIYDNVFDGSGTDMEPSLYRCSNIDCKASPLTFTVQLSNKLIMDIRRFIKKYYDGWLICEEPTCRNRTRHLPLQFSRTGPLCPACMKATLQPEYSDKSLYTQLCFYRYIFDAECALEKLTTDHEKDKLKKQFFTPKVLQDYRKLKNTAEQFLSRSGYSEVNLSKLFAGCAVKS
T1 sequence (Q14181 whole entry partner): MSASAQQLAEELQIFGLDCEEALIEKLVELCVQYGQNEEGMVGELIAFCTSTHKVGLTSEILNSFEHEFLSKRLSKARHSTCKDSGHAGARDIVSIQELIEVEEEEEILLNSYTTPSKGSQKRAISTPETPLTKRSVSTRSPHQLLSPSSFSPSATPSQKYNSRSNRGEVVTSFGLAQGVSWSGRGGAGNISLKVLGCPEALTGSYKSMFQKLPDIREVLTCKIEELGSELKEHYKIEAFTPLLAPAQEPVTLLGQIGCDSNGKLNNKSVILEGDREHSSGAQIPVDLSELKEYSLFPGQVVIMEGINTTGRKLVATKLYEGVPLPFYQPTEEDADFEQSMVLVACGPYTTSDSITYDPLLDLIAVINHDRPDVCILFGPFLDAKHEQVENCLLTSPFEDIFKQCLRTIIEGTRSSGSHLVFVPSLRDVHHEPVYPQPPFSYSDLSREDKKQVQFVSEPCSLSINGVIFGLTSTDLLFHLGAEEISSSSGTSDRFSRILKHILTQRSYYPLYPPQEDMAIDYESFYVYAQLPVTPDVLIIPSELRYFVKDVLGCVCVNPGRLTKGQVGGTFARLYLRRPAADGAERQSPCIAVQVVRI
T1 sequence (P49642 whole entry partner): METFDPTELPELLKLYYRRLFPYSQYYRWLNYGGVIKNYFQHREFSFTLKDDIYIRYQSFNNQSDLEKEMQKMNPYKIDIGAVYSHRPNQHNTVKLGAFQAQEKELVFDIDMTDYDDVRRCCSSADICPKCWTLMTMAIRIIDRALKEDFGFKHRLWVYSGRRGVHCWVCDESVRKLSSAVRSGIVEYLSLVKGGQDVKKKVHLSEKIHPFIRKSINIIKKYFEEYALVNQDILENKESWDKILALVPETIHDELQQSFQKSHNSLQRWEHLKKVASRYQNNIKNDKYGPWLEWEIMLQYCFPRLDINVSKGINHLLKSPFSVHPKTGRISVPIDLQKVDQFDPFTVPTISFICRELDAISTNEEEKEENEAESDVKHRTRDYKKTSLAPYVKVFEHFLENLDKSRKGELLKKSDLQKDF
T1 sequence (P49643 whole entry partner): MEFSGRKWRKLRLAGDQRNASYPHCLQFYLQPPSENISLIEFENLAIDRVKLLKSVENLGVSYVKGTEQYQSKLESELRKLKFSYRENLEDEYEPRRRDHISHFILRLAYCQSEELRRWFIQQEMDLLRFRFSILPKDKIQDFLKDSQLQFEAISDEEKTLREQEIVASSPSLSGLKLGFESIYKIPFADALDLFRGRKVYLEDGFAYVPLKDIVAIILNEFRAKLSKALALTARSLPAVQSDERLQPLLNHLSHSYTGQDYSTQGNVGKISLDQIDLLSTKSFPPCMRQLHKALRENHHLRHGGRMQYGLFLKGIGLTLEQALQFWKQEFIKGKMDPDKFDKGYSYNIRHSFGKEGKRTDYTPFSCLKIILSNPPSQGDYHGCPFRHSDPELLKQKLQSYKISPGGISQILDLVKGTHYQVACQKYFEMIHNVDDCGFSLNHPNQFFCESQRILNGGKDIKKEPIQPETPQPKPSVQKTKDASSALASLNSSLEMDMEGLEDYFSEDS

CC(=O)c1cn([C@H]2C[C@H](O)[C@@H](CO)O2)c(=O)[nH]1 [imidine, 1-(2-deoxy-β-D-ribofuranosyl)-4-acetylimidazolin-2-one]
cytotoxicity [1]: no cytotoxicity

CC(=O)c1cn(C2CC(O)C(COP(=O)(O)OP(=O)(O)OP(=O)(O)O)O2)c(=O)[nH]1 (stereo not shown) [dImdTP]
IC50 [2]: 17 µM
selectivity (HIV-reverse transcriptase vs Molt-4 DNA polymerase a) [3]: > 400 fold
IC50 [4]: 38 nM
